Reference: PubChem BioAssay AID1963851 (Molecular Pharmacology Branch, DTP, NCI, 2024)

Test system: 188146-221-R-J1-PDC complex spheroid viability
Test: Anticancer human tumor 188146-221-R-J1-PDC patient-derived colon adenocarcinoma cell line growth inhibition [POLQ]
Details: for IC50: curve of first compound; for viability, T/C: stronger effect = lower value; active = viability on the fitted dose curve at most 10% of control; inactive = the rest
Procedure, shortened: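 Patient-derived tumour cells were co-cultured with HUVEC and mesenchymal stem cells as multicellular spheroids at 37 °C. They were treated with POLQ inhibitors (novobiocin, ART-558, RP6685) alone or combined with other agents. Top concentrations were at or near clinical Cmax (otherwise 10 microM; SN-38 at 1 microM), decreasing in half-log steps.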
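Also: spheroids exposed to compounds for seven days.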
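For viability, T/C in this document: 100% = DMSO vehicle control viability.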

COc1cc(C2c3cc4c(cc3C(OC3OC5COC(C)OC5C(O)C3O)C3COC(=O)C23)OCO4)cc(OC)c1O (configuration not stated) + COC1C(OC(N)=O)C(O)C(Oc2ccc3c(O)c(NC(=O)c4ccc(O)c(CC=C(C)C)c4)c(=O)oc3c2C)OC1(C)C
847 nM: IC50 (second compound 0.316 µM)
954 nM: IC50 (second compound 3.16 µM)
inactive: viability, T/C (second compound 0.0316 µM, first compound 0.0316 µM) 116% | viability, T/C (second compound 0.0316 µM, first compound 0.1 µM) 103% | viability, T/C (second compound 0.0316 µM, first compound 0.316 µM) 78.1% | viability, T/C (second compound 0.0316 µM, first compound 1 µM) 45.9% | viability, T/C (second compound 0.0316 µM, first compound 3.16 µM) 31.3% | viability, T/C (second compound 0.0316 µM, first compound 10 µM) 21.4% | viability, T/C (second compound 0.1 µM, first compound 0.0316 µM) 124% | viability, T/C (second compound 0.1 µM, first compound 0.1 µM) 108% | viability, T/C (second compound 0.1 µM, first compound 0.316 µM) 79.5% | viability, T/C (second compound 0.1 µM, first compound 1 µM) 50% | viability, T/C (second compound 0.1 µM, first compound 3.16 µM) 24.8% | viability, T/C (second compound 0.1 µM, first compound 10 µM) 29% | viability, T/C (second compound 0.316 µM, first compound 0.0316 µM) 103% | viability, T/C (second compound 0.316 µM, first compound 0.1 µM) 111% | viability, T/C (second compound 0.316 µM, first compound 0.316 µM) 80.4% | viability, T/C (second compound 0.316 µM, first compound 1 µM) 46.5% | viability, T/C (second compound 0.316 µM, first compound 3.16 µM) 24.7% | viability, T/C (second compound 0.316 µM, first compound 10 µM) 23.4% | viability, T/C (second compound 1 µM, first compound 0.0316 µM) 111% | viability, T/C (second compound 1 µM, first compound 0.1 µM) 93.8% | viability, T/C (second compound 1 µM, first compound 0.316 µM) 77.3% | viability, T/C (second compound 1 µM, first compound 1 µM) 52.9% | viability, T/C (second compound 1 µM, first compound 3.16 µM) 25.3% | viability, T/C (second compound 1 µM, first compound 10 µM) 31.6% | viability, T/C (second compound 3.16 µM, first compound 0.0316 µM) 105% | viability, T/C (second compound 3.16 µM, first compound 0.1 µM) 103% | viability, T/C (second compound 3.16 µM, first compound 0.316 µM) 81.9% | viability, T/C (second compound 3.16 µM, first compound 1 µM) 49.7% | viability, T/C (second compound 3.16 µM, first compound 3.16 µM) 30% | viability, T/C (second compound 3.16 µM, first compound 10 µM) 29.2% | viability, T/C (second compound 10 µM, first compound 0.0316 µM) 119% | viability, T/C (second compound 10 µM, first compound 0.1 µM) 103% | viability, T/C (second compound 10 µM, first compound 0.316 µM) 97.3% | viability, T/C (second compound 10 µM, first compound 1 µM) 54.1% | viability, T/C (second compound 10 µM, first compound 3.16 µM) 34.7% | viability, T/C (second compound 10 µM, first compound 10 µM) 27.4%
1360 nM: IC50 (second compound 10 µM)
905 nM: IC50 (second compound 0.0316 µM)
911 nM: IC50 (second compound 0.1 µM)
980 nM: IC50 (second compound 1 µM)
